# Measured values from ChEMBL document CHEMBL3885881, “DrugMatrix”.
# Organism: Rattus norvegicus
# Experiment: DrugMatrix - Regimen: Daily Repeat
# Assay type: toxicity, organism-based, Sprague-Dawley
# Set-up: regimen Daily Repeat, gender Male, age 6-8 weeks
# Settings: in vivo, ip, 50 mg/kg, route intraperitoneal, dose level High, […]; for ABSOLUTE BASOPHIL / ABSOLUTE EOSINOPHIL / ABSOLUTE LYMPHOCYTE / ABSOLUTE MONOCYTE / ABSOLUTE SEGMENTED NEUTROPHIL / BASOPHIL / EOSINOPHIL / ERYTHROCYTE COUNT / HEMATOCRIT / HEMOGLOBIN / LEUKOCYTE COUNT / LYMPHOCYTE / MEAN CORPUSCULAR HEMOGLOBIN / MEAN CORPUSCULAR HEMOGLOBIN CONCENTRATION / MEAN CORPUSCULAR VOLUME / MONOCYTE / NEUTROPHIL / NUCLEATED RED BLOOD CELLS / PLATELET COUNT: tissue Blood; for ALANINE AMINOTRANSFERASE / ALBUMIN / ALKALINE PHOSPHATASE / ASPARTATE AMINOTRANSFERASE / BLOOD UREA NITROGEN / CARBON DIOXIDE / CHLORIDE / CHOLESTEROL / CREATININE / GLUCOSE / LACTATE DEHYDROGENASE / LIPASE / PHOSPHORUS / POTASSIUM / SODIUM / TOTAL BILIRUBIN / TOTAL PROTEIN / URIC ACID: tissue Plasma
structure (smiles),measurement,setting,value
ClC(Cl)=C(Cl)C(Cl)=C(Cl)Cl [HEXACHLOROBUTADIENE],ABSOLUTE BASOPHIL,"72 h, time 3 day",0 CELLS/uL
same,ABSOLUTE EOSINOPHIL,"72 h, time 3 day",265.33 CELLS/uL
same,ABSOLUTE LYMPHOCYTE,"72 h, time 3 day",14659.33 CELLS/uL
same,ABSOLUTE MONOCYTE,"72 h, time 3 day",513.33 CELLS/uL
same,ABSOLUTE SEGMENTED NEUTROPHIL,"72 h, time 3 day",2862 CELLS/uL
same,BASOPHIL,"72 h, time 3 day",0%
same,EOSINOPHIL,"72 h, time 3 day",1.33%
same,ERYTHROCYTE COUNT,"72 h, time 3 day",6.15 x10E6/uL
same,HEMATOCRIT,"72 h, time 3 day",36.87%
same,HEMOGLOBIN,"72 h, time 3 day",13.3 G/DL
same,LEUKOCYTE COUNT,"72 h, time 3 day",18.3 x10E3/uL
same,LYMPHOCYTE,"72 h, time 3 day",80.67%
same,MEAN CORPUSCULAR HEMOGLOBIN,"72 h, time 3 day",21.63 pg
same,MEAN CORPUSCULAR HEMOGLOBIN CONCENTRATION,"72 h, time 3 day",36.1 G/DL
same,MEAN CORPUSCULAR VOLUME,"72 h, time 3 day",60 fL
same,MONOCYTE,"72 h, time 3 day",2.67%
same,NEUTROPHIL,"72 h, time 3 day",15.33%
same,NUCLEATED RED BLOOD CELLS,"72 h, time 3 day",0 /100WBC
same,PLATELET COUNT,"72 h, time 3 day",1031 x10E3/uL
same,ALANINE AMINOTRANSFERASE,"72 h, time 3 day",36.33 u/L
same,ALBUMIN,"72 h, time 3 day",4.23 G/DL
same,ALKALINE PHOSPHATASE,"72 h, time 3 day",328.33 u/L
same,ASPARTATE AMINOTRANSFERASE,"72 h, time 3 day",101 u/L
same,BLOOD UREA NITROGEN,"72 h, time 3 day",11.67 mg/dL
same,CARBON DIOXIDE,"72 h, time 3 day",30.33 mmol/L
same,CHLORIDE,"72 h, time 3 day",102 MEQ/L
same,CHOLESTEROL,"72 h, time 3 day",84.67 mg/dL
same,CREATININE,"72 h, time 3 day",0.16 mg/dL
same,GLUCOSE,"72 h, time 3 day",173 mg/dL
same,LACTATE DEHYDROGENASE,"72 h, time 3 day",166 u/L
same,LIPASE,"72 h, time 3 day",9.67 u/L
same,PHOSPHORUS,"72 h, time 3 day",11.6 mg/dL
same,POTASSIUM,"72 h, time 3 day",6.25 MEQ/L
same,SODIUM,"72 h, time 3 day",147.3 MEQ/L
same,TOTAL BILIRUBIN,"72 h, time 3 day",0.13 mg/dL
same,TOTAL PROTEIN,"72 h, time 3 day",6.3 G/DL
same,URIC ACID,"72 h, time 3 day",2.6 mg/dL
same,ABSOLUTE BASOPHIL,"120 h, time 5 day",0 CELLS/uL
same,ABSOLUTE EOSINOPHIL,"120 h, time 5 day",230 CELLS/uL
same,ABSOLUTE LYMPHOCYTE,"120 h, time 5 day",9645 CELLS/uL
same,ABSOLUTE MONOCYTE,"120 h, time 5 day",302 CELLS/uL
same,ABSOLUTE SEGMENTED NEUTROPHIL,"120 h, time 5 day",1323 CELLS/uL
same,BASOPHIL,"120 h, time 5 day",0%
same,EOSINOPHIL,"120 h, time 5 day",2%
same,ERYTHROCYTE COUNT,"120 h, time 5 day",5.76 x10E6/uL
same,HEMATOCRIT,"120 h, time 5 day",36.65%
same,HEMOGLOBIN,"120 h, time 5 day",13.3 G/DL
same,LEUKOCYTE COUNT,"120 h, time 5 day",11.5 x10E3/uL
same,LYMPHOCYTE,"120 h, time 5 day",84.5%
same,MEAN CORPUSCULAR HEMOGLOBIN,"120 h, time 5 day",23.1 pg
same,MEAN CORPUSCULAR HEMOGLOBIN CONCENTRATION,"120 h, time 5 day",36.25 G/DL
same,MEAN CORPUSCULAR VOLUME,"120 h, time 5 day",63.6 fL
same,MONOCYTE,"120 h, time 5 day",2.5%
same,NEUTROPHIL,"120 h, time 5 day",11%
same,NUCLEATED RED BLOOD CELLS,"120 h, time 5 day",0 /100WBC
same,PLATELET COUNT,"120 h, time 5 day",1216 x10E3/uL
same,ALANINE AMINOTRANSFERASE,"120 h, time 5 day",39 u/L
same,ALBUMIN,"120 h, time 5 day",4.3 G/DL
same,ALKALINE PHOSPHATASE,"120 h, time 5 day",279.5 u/L
same,ASPARTATE AMINOTRANSFERASE,"120 h, time 5 day",100.5 u/L
same,BLOOD UREA NITROGEN,"120 h, time 5 day",11.5 mg/dL
same,CARBON DIOXIDE,"120 h, time 5 day",32.5 mmol/L
same,CHLORIDE,"120 h, time 5 day",101 MEQ/L
same,CHOLESTEROL,"120 h, time 5 day",106 mg/dL
same,CREATININE,"120 h, time 5 day",0.19 mg/dL
same,GLUCOSE,"120 h, time 5 day",171.5 mg/dL
same,LACTATE DEHYDROGENASE,"120 h, time 5 day",160.5 u/L
same,LIPASE,"120 h, time 5 day",9.5 u/L
same,PHOSPHORUS,"120 h, time 5 day",13.95 mg/dL
same,POTASSIUM,"120 h, time 5 day",6 MEQ/L
same,SODIUM,"120 h, time 5 day",147.1 MEQ/L
same,TOTAL BILIRUBIN,"120 h, time 5 day",0.2 mg/dL
same,TOTAL PROTEIN,"120 h, time 5 day",6.6 G/DL
same,URIC ACID,"120 h, time 5 day",1.75 mg/dL
same,ABSOLUTE BASOPHIL,time 14 day,0 CELLS/uL
same,ABSOLUTE EOSINOPHIL,time 14 day,146.4 CELLS/uL
same,ABSOLUTE LYMPHOCYTE,time 14 day,11678.6 CELLS/uL
same,ABSOLUTE MONOCYTE,time 14 day,306.2 CELLS/uL
same,ABSOLUTE SEGMENTED NEUTROPHIL,time 14 day,1488.8 CELLS/uL
same,BASOPHIL,time 14 day,0%
same,EOSINOPHIL,time 14 day,1.2%
same,ERYTHROCYTE COUNT,time 14 day,6.11 x10E6/uL
same,HEMATOCRIT,time 14 day,35.9%
same,HEMOGLOBIN,time 14 day,13.2 G/DL
same,LEUKOCYTE COUNT,time 14 day,13.62 x10E3/uL
same,LYMPHOCYTE,time 14 day,86.4%
same,MEAN CORPUSCULAR HEMOGLOBIN,time 14 day,21.6 pg
same,MEAN CORPUSCULAR HEMOGLOBIN CONCENTRATION,time 14 day,36.82 G/DL
same,MEAN CORPUSCULAR VOLUME,time 14 day,58.64 fL
same,MONOCYTE,time 14 day,2.2%
same,NEUTROPHIL,time 14 day,10.2%
same,NUCLEATED RED BLOOD CELLS,time 14 day,0 /100WBC
same,PLATELET COUNT,time 14 day,1058.6 x10E3/uL
same,ALANINE AMINOTRANSFERASE,time 14 day,31.2 u/L
same,ALBUMIN,time 14 day,4.2 G/DL
same,ALKALINE PHOSPHATASE,time 14 day,238.6 u/L
same,ASPARTATE AMINOTRANSFERASE,time 14 day,99.6 u/L
same,BLOOD UREA NITROGEN,time 14 day,13.8 mg/dL
same,CARBON DIOXIDE,time 14 day,30.8 mmol/L
same,CHLORIDE,time 14 day,102 MEQ/L
same,CHOLESTEROL,time 14 day,83.6 mg/dL
same,CREATININE,time 14 day,0.2 mg/dL
same,GLUCOSE,time 14 day,149.2 mg/dL
same,LACTATE DEHYDROGENASE,time 14 day,133.2 u/L
same,LIPASE,time 14 day,10.4 u/L
same,PHOSPHORUS,time 14 day,9.96 mg/dL
same,POTASSIUM,time 14 day,5.75 MEQ/L
same,SODIUM,time 14 day,145.2 MEQ/L
same,TOTAL BILIRUBIN,time 14 day,0.18 mg/dL
same,TOTAL PROTEIN,time 14 day,6.18 G/DL
same,URIC ACID,time 14 day,1 mg/dL
